“And” between values parts separate entries of the source, which are not always exact repeats. Identical values can stand only once.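 Cultured in 96-well plates, cells were exposed to test compound for 48 hours across five concentrations. Abbreviation: GI50, concentration required for 50% inhibition of growth. TGI denotes the concentration required for complete inhibition of growth.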

Assay in all cases: DTP human tumour cell line panel, 48 h
Assay [1] has as its system T-47D breast.
Assay [2] deals with SF-539 CNS.
Assay [3] relates to BT-549 breast.
Assay [4] relates to OVCAR-3 ovarian.
The subject of assay [5] is DU-145 prostate.
The subject of assay [6] is KM12 colon.
In assay [7] the test system is LOX IMVI melanoma.
Assay [8] concerns SW-620 colon.
The subject of assay [9] is NCI-H522 lung.
Assay [10] concerns SF-295 CNS.

In general, GI50 refers to the concentration that inhibits growth by half. By TGI is commonly meant the concentration at which net growth stops. Higher therefore signals less potent growth arrest. As for `O=Cc1ccc(-c2cc(C=O)c(-c3cccs3)[nH]2)s1`, the GI50 in assay [1] was 18.2 µM; in assay [3], more than 100 µM; in assay [4] it was 52 µM; in [6], 50.8 µM; in [7], more than 100 µM; in [8], more than 100 µM. In addition, the GI50 was 19.6 µM in [9] and 36.9 µM in [10]. For the same compound, the TGI in [1] is 49.6 µM and > 100 µM; in [2] it was 75 µM; in assay [3], 75 µM and > 100 µM; in assay [4] it was 53.7 µM and > 100 µM; in assay [5], 75 µM and > 100 µM; in assay [6], 75 µM and > 100 µM. In addition, the TGI in assay [7] was 75 µM and > 100 µM; in assay [8], more than 100 µM; in assay [9], 19.9 µM and 57.4 µM; in assay [10], 75 µM and > 100 µM.

On to `Cc1ccccc1NC(=O)N/C(N)=N/c1nc(-c2cccc([N+](=O)[O-])c2)cs1`, for which the GI50 in assay [1] is 3.2 µM; in assay [2], 1.65 µM; in [3], 2.16 µM; in [4] it was 1.72 µM; in [5] it was 3.35 µM; in assay [6], 2.49 µM. The GI50 in [7] was 1.79 µM; in assay [8], 2.3 µM; in assay [9] it was 1.79 µM; in assay [10], 1.53 µM. For the same compound, the TGI in [1] is more than 100 µM; in assay [2], 3.21 µM; in [3], 5.37 µM; in assay [4] it was 4.41 µM; in assay [5], 65.1 µM; in assay [6], more than 100 µM. The concentration for total growth inhibition (TGI) in [7] is 5.17 µM; in assay [8], more than 100 µM; in assay [9], more than 100 µM; in assay [10], 3.62 µM.

Consider `NOCC(=O)O`, for which the GI50 in assay [1], in assay [2], in assay [3], in assay [4], in assay [5] and in assay [6] was more than 100 µM throughout. Besides, the GI50 is more than 100 µM in assay [7], more than 100 µM in assay [8], 25.9 µM in assay [9] and more than 100 µM in assay [10]. Also, the concentration for total growth inhibition (TGI) in [1], in [2], in [3], in assay [4], in [5] and in assay [6] was more than 100 µM in each case. In addition, the total growth inhibition concentration (TGI) in assay [7], in [8], in assay [9] and in assay [10] was more than 100 µM throughout.

Take `CC(C)(C#N)c1cc(Cn2cncn2)cc(C(C)(C)C#N)c1`: the GI50 was 6760 µM in assay [1]; 2450 µM in [2]; 472 µM in assay [3]; more than 10000 µM in assay [4]; more than 10000 µM in assay [5]; more than 10000 µM in assay [6]. In addition, the GI50 in assay [7] is more than 10000 µM; in assay [8], more than 10000 µM; in assay [9] it was 2630 µM; in [10], 299 µM. Further, the concentration for total growth inhibition (TGI) in [1], in assay [2], in assay [3], in [4], in [5] and in assay [6] was more than 10000 µM in each case. Also, the TGI in assay [7], in assay [8], in [9] and in [10] was more than 10000 µM in each case.

`O=C1Nc2ccc(C(=O)c3ccco3)cc2/C1=C/c1cc(Cl)c(O)c(Cl)c1`: the GI50 in [1] is 7.17 µM; in assay [2], 3.93 µM; in assay [3], 3.54 µM; in assay [4] it was 4.32 µM; in [5] it was 4.75 µM; in assay [6], 3.62 µM. The GI50 in assay [7] was 1.78 µM; in assay [8], 4.8 µM; in [9], 3.91 µM; in assay [10], 8.21 µM. Besides, the TGI in [1] is more than 25 µM; in assay [2] it was 9.49 µM; in assay [3], 10.5 µM; in assay [4], 10.6 µM; in [5], more than 18.4 µM; in assay [6], more than 17.7 µM. Moreover, the TGI in [7] was 15.3 µM; in assay [8], more than 23.8 µM; in assay [9] it was 11.9 µM; in assay [10], more than 25 µM.

In the case of `CCC(Sc1cc(Cl)c(C)cc1S(=O)(=O)Nc1nc(N)nc(N(C)C)n1)C(=O)O` (stereo not drawn), the TGI in assay [1], in [2], in assay [3], in assay [4], in assay [5] and in assay [6] was more than 10 µM each time. Moreover, the TGI in assay [7], in [8], in assay [9] and in assay [10] was more than 10 µM in each case.

With `COc1cc(OC)cc(C2CC(=O)Nc3c2c(C)nn3-c2nc3ccccc3[nH]2)c1` (stereo not drawn), the GI50 in assay [1] was 3.5 µM; in assay [2] it was 2.96 µM; in [3], 2.46 µM; in assay [4] it was 2.3 µM; in [5], 3.73 µM; in assay [6], 2.79 µM. Besides, the GI50 in [7] is 2.09 µM; in assay [8], 3.31 µM; in assay [9], 2.08 µM; in assay [10], 1.58 µM. Moreover, the total growth inhibition concentration (TGI) was more than 100 µM in [1]; 9.43 µM in assay [2]; 7.86 µM in assay [3]; 5.02 µM in [4]; 17.1 µM in [5]; 7.68 µM in assay [6]. The total growth inhibition concentration (TGI) worked out at 4.44 µM in assay [7], 12.9 µM in assay [8], 5.58 µM in assay [9] and 3.85 µM in [10].

As to `CCOC(=O)Nc1nc2ccc(Cn3cccc3)cc2[nH]1`, the concentration for total growth inhibition (TGI) in [1] was more than 100 µM; in assay [2], 7.09 µM; in assay [3], more than 100 µM; in [4], 6.3 µM; in assay [5], more than 52.5 µM; in assay [6], more than 100 µM. Moreover, the TGI in assay [7] was more than 100 µM; in [8], more than 100 µM; in [9] it was 2.1 µM; in assay [10], 20 µM.

Regarding `CC1=C2[C@@H](CC1)[C@]1(C)O[C@@](C3CCCCC3)(C[C@H]1OC(=O)CO)[C@H]2OC(=O)/C=C/c1ccccc1`, the GI50 is 4.69 µM in assay [1]; 12.8 µM in [2]; 0.328 µM in assay [3]; 6.92 µM in assay [4]; 9.68 µM in assay [5]; 8.34 µM in [6]. For the same compound, the GI50 was 5.31 µM in assay [7], 9.26 µM in assay [8], 7.71 µM in assay [9] and 6.45 µM in assay [10]. The TGI amounted to 17.5 µM in [1]; 27.7 µM in [2]; 6.67 µM in [3]; 18.7 µM in [4]; 23.4 µM in [5]; 24.7 µM in [6]. For the same compound, the total growth inhibition concentration (TGI) in assay [7] was 11.2 µM; in assay [8] it was 25.1 µM; in assay [9], 22.5 µM; in [10], 19 µM.

Regarding `CO[C@@H]1/C=C\C=C(/C)C(=O)NC2=CC(=O)C(NCCN(C)C)=C(C[C@@H](C)C[C@@H](OC)[C@@H](O)[C@H](C)/C=C(\C)[C@H]1OC(N)=O)C2=O`, the 50% growth inhibitory concentration (GI50) was 0.03 µM and 0.0574 µM in [1]; < 0.01 µM and 0.0319 µM in assay [2]; 0.88 µM and 1.53 µM in [3]; 0.068 µM and 0.0369 µM in assay [4]; less than 0.01 µM in assay [5]; 0.0147 µM in assay [6]. In addition, the GI50 in assay [7] was less than 0.013 µM; in assay [8], < 0.01 µM and 0.0487 µM; in assay [9], < 0.01 µM and 0.0228 µM; in assay [10] it was 0.0278 µM. The TGI in assay [1] was 3.31 µM and 4.48 µM; in [2], 11.6 µM and 3.38 µM; in [3] it was 14.6 µM and 21.1 µM; in assay [4] it was 6.26 µM and 2.39 µM; in assay [5] it was 5.13 µM and 12.4 µM; in assay [6], 1.02 µM and 0.448 µM. The TGI is 0.379 µM in [7]; 20.6 µM in assay [8]; 0.709 µM and 3.57 µM in assay [9]; 17.2 µM and 11.7 µM in [10].

Take `CCN(CC)CCC(=O)NC1c2ccc(Cl)cc2Oc2c(C)cccc21` (stereo not drawn): the total growth inhibition concentration (TGI) in assay [1] worked out at 31.5 µM; in assay [2], 27.7 µM; in assay [3] it was 27.1 µM; in [4], 28.8 µM; in [5], 32.9 µM; in assay [6], 30.4 µM. The TGI was 29.1 µM in assay [7], 33.2 µM in assay [8], 31.6 µM in [9] and 33.9 µM in assay [10].

Turning to `O=C1c2ccccc2-c2c1c1ccccc1c(=O)n2CCCNCCCn1ccnc1`, the GI50 in assay [1] is 5.78 µM; in assay [2], 0.908 µM; in assay [3], 1.07 µM; in assay [4], 1.63 µM; in [5], 0.318 µM; in assay [6], 0.593 µM. In addition, the GI50 in assay [7] was 0.45 µM; in assay [8], 0.24 µM; in assay [9], 1.66 µM; in assay [10], 0.419 µM. For the same compound, the concentration for total growth inhibition (TGI) stood at 21.1 µM in assay [1]; 2.48 µM in assay [2]; 7.11 µM in assay [3]; 6.48 µM in assay [4]; 2.07 µM in assay [5]; 2.41 µM in [6]. For the same compound, the TGI in [7] stood at 1.78 µM; in [8], 1.82 µM; in assay [9], 9.29 µM; in assay [10], 1.99 µM.

On to `CC12OC(c3ccccc3)=CC(c3ccc(Cl)cc3)=C1C(c1ccccc1)=CC2=O` (stereo not drawn), for which the GI50 in assay [1] was 35.8 µM; in [2] it was more than 100 µM; in assay [3], more than 100 µM; in assay [4], 80 µM; in assay [5], more than 100 µM; in [6], 71.8 µM. Further, the GI50 is 46 µM in assay [7], 90.4 µM in assay [8], 72.2 µM in assay [9] and 25 µM in assay [10]. Further, the TGI in [1], in [2], in assay [3], in assay [4], in assay [5] and in assay [6] was more than 100 µM throughout. For the same compound, the concentration for total growth inhibition (TGI) in assay [7], in assay [8], in assay [9] and in assay [10] was more than 100 µM in each case.

As to `C=C1C(=O)O[C@H]2[C@H]1CC/C(CNC(=O)c1cc3cc(OC)ccc3[nH]1)=C\CC[C@@]1(C)O[C@@H]21`, the GI50 in assay [1] is 1.47 µM; in [2], 1.42 µM; in assay [3], 1.44 µM; in assay [4], 1.21 µM; in assay [5] it was 1.21 µM; in assay [6], 4.98 µM. Moreover, the GI50 was 1.36 µM in assay [7], 1.15 µM in [8], 0.7 µM in [9] and 4.89 µM in assay [10]. Further, the TGI in assay [1] is 4.35 µM; in assay [2] it was 3 µM; in assay [3], 3.42 µM; in assay [4] it was 2.57 µM; in [5], 2.78 µM; in assay [6] it was 17.7 µM. Further, the TGI in assay [7] worked out at 2.67 µM; in assay [8], 2.77 µM; in [9] it was 2.55 µM; in assay [10], 18.7 µM.

For the compound `O=c1c(Oc2ccc(F)cc2F)cc2cnc(NC3CCOCC3)nc2n1C1CCS(=O)(=O)CC1`, the GI50 in assay [1], in assay [2], in assay [3], in [4], in [5] and in assay [6] was more than 25 µM in each case. Moreover, the GI50 in assay [7], in [8], in assay [9] and in [10] was more than 25 µM throughout. The concentration for total growth inhibition (TGI) in assay [1], in assay [2], in assay [3], in assay [4], in assay [5] and in [6] was more than 25 µM in each case. Further, the total growth inhibition concentration (TGI) in assay [7], in assay [8], in assay [9] and in [10] was more than 25 µM in each case.

Regarding `CC(=O)C(=[N+]=[N-])C(=O)NCC#N`, the total growth inhibition concentration (TGI) in assay [1], in [2], in [3], in assay [4], in assay [5] and in assay [6] was more than 10 µM each time. Besides, the TGI in assay [7], in assay [8], in [9] and in [10] was more than 10 µM in each case.
